Laboratory results published in PubChem BioAssay AID1963861 (Molecular Pharmacology Branch, DTP, NCI, 2024).

Test system: 885724-159-R-J1-PDC KRAS PDC multicell spheroid viability
Assay: Anticancer human tumor 885724-159-R-J1-PDC patient-derived pancreatic adenocarcinoma cell line growth inhibition [KRAS2]
Conditions: for IC50: curve of first compound; for viability, T/C: stronger effect = lower value
Procedure, shortened: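 KRAS-mutant tumor cells were grown as spheroids with HUVEC endothelial cells and human MSCs as stroma. Targeted agents were tested alone and with KRAS pathway inhibitors. Doses started at or near clinical Cmax, or 10 microM, descending half-log.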
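Further: spheroids exposed to agents for 7 days before readout.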

COC(=O)c1ccc2c(C(=Nc3ccc(N(C)C(=O)CN4CCN(C)CC4)cc3)c3ccccc3)c(O)[nH]c2c1 + COc1cc2nc(C)nc(NC(C)c3cc(N)cc(C(F)(F)F)c3)c2cc1OC1CCOC1
IC50 (second compound 0.1 µM): 2290 nM | IC50 (second compound 0.316 µM): 2430 nM | IC50 (second compound 1 µM): 1980 nM | IC50 (second compound 3.16 µM): 1780 nM | IC50 (second compound 10 µM): < 31.6 nM | viability, T/C (second compound 0.1 µM, first compound 0.0316 µM): 121% | viability, T/C (second compound 0.1 µM, first compound 0.1 µM): 127% | viability, T/C (second compound 0.1 µM, first compound 0.316 µM): 120% | viability, T/C (second compound 0.1 µM, first compound 1 µM): 118% | viability, T/C (second compound 0.1 µM, first compound 3.16 µM): 23.7% | viability, T/C (second compound 0.1 µM, first compound 10 µM): 1.54% | viability, T/C (second compound 0.316 µM, first compound 0.0316 µM): 107% | viability, T/C (second compound 0.316 µM, first compound 0.1 µM): 114% | viability, T/C (second compound 0.316 µM, first compound 0.316 µM): 102% | viability, T/C (second compound 0.316 µM, first compound 1 µM): 103% | viability, T/C (second compound 0.316 µM, first compound 3.16 µM): 34.5% | viability, T/C (second compound 0.316 µM, first compound 10 µM): 0.96% | viability, T/C (second compound 1 µM, first compound 0.0316 µM): 103% | viability, T/C (second compound 1 µM, first compound 0.1 µM): 106% | viability, T/C (second compound 1 µM, first compound 0.316 µM): 107% | viability, T/C (second compound 1 µM, first compound 1 µM): 98.1% | viability, T/C (second compound 1 µM, first compound 3.16 µM): 17% | viability, T/C (second compound 1 µM, first compound 10 µM): 1.09% | viability, T/C (second compound 3.16 µM, first compound 0.0316 µM): 93.8% | viability, T/C (second compound 3.16 µM, first compound 0.1 µM): 98.6% | viability, T/C (second compound 3.16 µM, first compound 0.316 µM): 104% | viability, T/C (second compound 3.16 µM, first compound 1 µM): 95.8% | viability, T/C (second compound 3.16 µM, first compound 3.16 µM): 3.95% | viability, T/C (second compound 3.16 µM, first compound 10 µM): 0.79% | viability, T/C (second compound 10 µM, first compound 0.0316 µM): 46.7% | viability, T/C (second compound 10 µM, first compound 0.1 µM): 48.8% | viability, T/C (second compound 10 µM, first compound 0.316 µM): 19.4% | viability, T/C (second compound 10 µM, first compound 1 µM): 8.2% | viability, T/C (second compound 10 µM, first compound 3.16 µM): 0.75% | viability, T/C (second compound 10 µM, first compound 10 µM): 0.36%
